The values that follow come from ChEMBL document CHEMBL3860055, “Design, synthesis and in vitro evaluation of amidoximes as histone deacetylase inhibitors for cancer therapy” (Bioorg Med Chem Lett, 2016).

Structures are written as SMILES.

In experiment [1] the target is Histone deacetylase (HDAC1 and HDAC2) (Homo sapiens, UniProt Q13547+Q92769). As to the kind of experiment: Inhibition of HDAC1/HDAC2 in human HeLa cell nuclear extract preincubated for 20 mins followed by addition of HDAC green as substrate measured after 60 mins by fluorescence analysis. In kind it is cell-based.
Experiment [2] in a line: Antiproliferative activity against human HCT116 cells measured after 72 hrs by WST1 assay. Format: functional, cell-based. The settings on record: HCT-116, 72 h. On the technique in general: Formazan colour is commonly taken as a measure of viable cells.
Experiment [3] can be described thus: Antiproliferative activity against human A549 cells measured after 72 hrs by WST1 assay. Format: functional, cell-based. Particulars: A549, 72 h.
Experiment [4] is described as follows: Cell cycle arrest in human A549 cells assessed as accumulation at G1-phase at 26 uM measured after 24 hrs by propidium iodide staining based flow cytometric analysis (reference value: 63%). In kind it is functional.
A short description of experiment [5]: Cell cycle arrest in human A549 cells assessed as accumulation at S-phase at 26 uM measured after 24 hrs by propidium iodide staining based flow cytometric analysis (reference value: 7%). In kind it is functional. In general terms: A flow cytometer gives signals particle by particle.
Experiment [6] in a line: Cell cycle arrest in human A549 cells assessed as accumulation at G2/M-phase at 26 uM measured after 24 hrs by propidium iodide staining based flow cytometric analysis (reference value: 27%). In kind it is functional.
Experiment [7] in a line: Cell cycle arrest in human A549 cells assessed as accumulation at G1-phase at 157 uM measured after 24 hrs by propidium iodide staining based flow cytometric analysis (reference value: 63%). Format: functional.
Experiment [8] in a line: Cell cycle arrest in human A549 cells assessed as accumulation at S-phase at 157 uM measured after 24 hrs by propidium iodide staining based flow cytometric analysis (reference value: 7%). In kind it is functional.
The nature of experiment [9]: Cell cycle arrest in human A549 cells assessed as accumulation at G2/M-phase at 157 uM measured after 24 hrs by propidium iodide staining based flow cytometric analysis (reference value: 27%). In kind it is functional.
A short description of experiment [10]: Cell cycle arrest in human HCT116 cells assessed as accumulation at G1-phase at 26 uM measured after 24 hrs by propidium iodide staining based flow cytometric analysis (reference value: 59%). Particulars: HCT-116. In kind it is functional.
Experiment [11] in a line: Cell cycle arrest in human HCT116 cells assessed as accumulation at S-phase at 26 uM measured after 24 hrs by propidium iodide staining based flow cytometric analysis (reference value: 8%). The settings on record: HCT-116. In kind it is functional.
Experiment [12] can be described thus: Cell cycle arrest in human HCT116 cells assessed as accumulation at G2/M-phase at 26 uM measured after 24 hrs by propidium iodide staining based flow cytometric analysis (reference value: 30%). In kind it is functional. The settings on record: HCT-116.
The nature of experiment [13]: Cell cycle arrest in human HCT116 cells assessed as accumulation at G1-phase at 157 uM measured after 24 hrs by propidium iodide staining based flow cytometric analysis (reference value: 59%). In kind it is functional. The settings on record: HCT-116.
A short description of experiment [14]: Cell cycle arrest in human HCT116 cells assessed as accumulation at S-phase at 157 uM measured after 24 hrs by propidium iodide staining based flow cytometric analysis (reference value: 8%). Format: functional. Particulars: HCT-116.
A short description of experiment [15]: Cell cycle arrest in human HCT116 cells assessed as accumulation at G2/M-phase at 157 uM measured after 24 hrs by propidium iodide staining based flow cytometric analysis (reference value: 30%). In kind it is functional. The settings on record: HCT-116.
Experiment [16] is described as follows: Cell cycle arrest in human A549 cells assessed as accumulation at G2/M-phase measured after 24 hrs by propidium iodide staining based flow cytometric analysis. In kind it is functional.

With `CCCCNCC(=O)Nc1ccc(/C(N)=N/O)cc1`, the IC50 (in general, the concentration at which inhibition is half-maximal) in [1] worked out at 0.282 µM. Moreover, the half-maximal effective concentration (EC50) – broadly, the concentration needed to bring the measured effect to its halfway point – was 83 µM in experiment [2] and 395 µM in [3].

`CCCCNCCCCC(=O)Nc1ccc(/C(N)=N/O)cc1`: in experiment [1], the IC50 is over 1 µM. Moreover, the results for the concentration giving a half-maximal response (EC50) in [2] and in experiment [3] were 516 µM and over 1000 µM, respectively.

Regarding `CCCCCCNCCCCC(=O)Nc1ccc(/C(N)=N/O)cc1`, the IC50 in experiment [1] was over 1 µM. Further, the EC50 in [2] and in [3] was over 1000 µM throughout.

As to `N/C(=N\O)c1ccc(NC(=O)CCCCNCCc2ccccc2)cc1`, the IC50 in [1] was over 1 µM. The EC50 in experiment [2] is 691 µM; in [3], over 1000 µM.

For the compound `CCCCCCNCC(=O)Nc1ccc(/C(N)=N/O)cc1`, the IC50 in experiment [1] was determined as 0.381 µM. The figures for the half-maximal effective concentration (EC50) in experiment [2] and in [3] were 124 µM and 658 µM, respectively.

On to `CCCCCCNCCCC(=O)Nc1ccc(/C(N)=N/O)cc1`, for which the IC50 in experiment [1] is over 1 µM. The values for the EC50 in experiment [2] and in [3] were 312 µM and over 1000 µM, respectively.

`N/C(=N\O)c1ccc(NC(=O)NCCc2ccccc2)cc1` gave a 50% inhibitory concentration (IC50) in experiment [1] of 0.304 µM. Also, the values for the half-maximal effective concentration (EC50) in experiment [2] and in experiment [3] were 91 µM and 463 µM, respectively.

In the case of `N/C(=N\O)c1ccc(NC(=O)CCNCCc2ccccc2)cc1`, in experiment [1], the concentration for half-maximal inhibition (IC50) came to 0.273 µM. For the same compound, the EC50 in [2] came to 69 µM; in [3], 330 µM.

Turning to `CCCCNC(=O)Nc1ccc(/C(N)=N/O)cc1`, the IC50 in experiment [1] amounted to 0.591 µM. In addition, the EC50 in experiment [2] was 186 µM; in experiment [3] it was over 1000 µM.

For `CCCCCCNC(=O)Nc1ccc(/C(N)=N/O)cc1`, in experiment [1], the IC50 worked out at 0.599 µM. Also, the EC50 was 195 µM in experiment [2] and over 1000 µM in experiment [3].

As for `CCCCNCCCC(=O)Nc1ccc(/C(N)=N/O)cc1`, the IC50 in experiment [1] is 0.723 µM. Besides, the values for the EC50 in experiment [2] and in experiment [3] were 267 µM and over 1000 µM, respectively.

`O=C(NCCc1ccccc1)Nc1ccc(C(=O)NO)cc1`: the IC50 in experiment [1] was 0.582 µM. In addition, the EC50 in experiment [2] was 175 µM; in experiment [3], over 1000 µM.

On to `CCCCNCCC(=O)Nc1ccc(/C(N)=N/O)cc1`, for which the half-inhibitory concentration (IC50) in [1] came to 0.528 µM. The EC50 in [2] was 153 µM; in [3] it was 881 µM.

The compound `N/C(=N\O)c1ccc(NC(=O)CNCCc2ccccc2)cc1` gave an IC50 in [1] of 0.093 µM. The values for the EC50 in experiment [2] and in experiment [3] were 26 µM and 157 µM, respectively. The Activity is 54% in experiment [4]; 7% in experiment [5]; 36% in experiment [6]; 22% in experiment [7]; 9% in experiment [8]; 68% in experiment [9]. Besides, the Activity was 31% in experiment [10]; 7% in experiment [11]; 58% in experiment [12]; 3% in experiment [13]; 5% in experiment [14]; 87% in experiment [15]. Besides, in experiment [16], the Activity entry is “Dose-dependent effect”.

For the compound `N/C(=N\O)c1ccc(NC(=O)CCCNCCc2ccccc2)cc1`, in [1], the IC50 came out at 0.697 µM. For the same compound, the concentration for a half-maximal effect (EC50) in experiment [2] was 218 µM; in experiment [3], over 1000 µM.

In experiment [1], `CCCCCCNCCC(=O)Nc1ccc(/C(N)=N/O)cc1` yielded a concentration for half-maximal inhibition (IC50) of 0.602 µM. The 50% effective concentration (EC50) in [2] was 193 µM; in experiment [3] it was over 1000 µM.
